pIC50: −log10 of the molar value. “And” between values parts separate entries of the source, which are not always exact repeats. Equal entries are not always repeated.
Legend:
HsAsnRS = molecular target: T1, HsAsnRS (Homo sapiens, UniProt O43776); test: LC-MS of Asn-OSM-S-106 adduct generated by recombinant HsAsnRS; assay type: biochemical
T1 construct: HsAsnRS (residues M1–P548) and CDHsAsnRS (residues A98–P548); His6 (N, cleaved yes); made in house; host or cells: E. coli BL21 (DE3), pET11a
T1 sequence (O43776 1-548): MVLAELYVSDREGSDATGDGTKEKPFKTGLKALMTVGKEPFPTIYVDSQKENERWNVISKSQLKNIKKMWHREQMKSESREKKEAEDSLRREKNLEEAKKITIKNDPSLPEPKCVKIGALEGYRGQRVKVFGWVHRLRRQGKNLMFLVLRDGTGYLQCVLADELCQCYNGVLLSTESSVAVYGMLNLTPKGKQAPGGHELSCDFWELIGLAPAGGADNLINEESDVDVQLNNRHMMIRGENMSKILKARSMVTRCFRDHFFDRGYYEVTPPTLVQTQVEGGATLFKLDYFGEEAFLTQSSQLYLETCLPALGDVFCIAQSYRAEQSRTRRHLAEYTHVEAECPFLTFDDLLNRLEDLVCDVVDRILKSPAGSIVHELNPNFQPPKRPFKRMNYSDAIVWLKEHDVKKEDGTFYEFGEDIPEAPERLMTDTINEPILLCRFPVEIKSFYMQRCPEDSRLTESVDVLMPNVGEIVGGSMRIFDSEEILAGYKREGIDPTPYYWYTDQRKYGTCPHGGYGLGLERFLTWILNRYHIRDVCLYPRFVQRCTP
Experimental: The reaction buffer consists of 100 mM HEPES pH 7.5 (KOH), 160 mM KCl, 3.5 mM MgCl2, 1 mM DTT. The mixture was incubated at 37 °C for 1 h. After that, an equal volume of 8 M urea was added to the mixture. Finally, trifluoroacetic acid was added to a final concentration of 1%. The sample was centrifuged at 15,000 × g for 10 min and the supernatant was used for LCMS analysis. […] Quantification of the conjugates was done using Skyline (version 21.1.0.278).
Samples were analyzed by reversed-phase ultra-high-performance liquid chromatography (UHPLC) coupled to tandem mass spectrometry (MS/MS) employing a Vanquish UHPLC linked to an Orbitrap Fusion Lumos mass spectrometer (Thermo Fisher Scientific, San Jose, CA, USA) operated in positive ion mode. Solvent A was 0.1% formic acid/10 mM ammonium acetate in water and solvent B was 0.1% formic acid/10 mM ammonium acetate in acetonitrile. […] Finally, the percentage of solvent B was decreased to 0% in 0.1 min and maintained for 3.9 min.
MS experiments were performed using a Heated Electrospray Ionization (HESI) source. The spray voltage, flow rate of sheath, auxiliary and sweep gases were 3.5 kV, 20, 6, and 1 ‘arbitrary’ unit(s), respectively. The ion transfer tube and vaporizer temperatures were maintained at 350 °C and 400 °C, respectively, and the S-Lens RF level was set at 50%. […]

P. falciparum Dd2 parent = test: 72 h sensitivity of wildtype Dd2 parent line; assay type: cell-based, Plasmodium falciparum; conditions: for growth after 72 h exposure, normalised to no drug: replicates
[1] = tested on: P. falciparum Cam3.II-rev; test: Drug pulse (6 h) viability assay; assay type: cell-based, Plasmodium falciparum
Experimental: Viability was assessed in the second cycle by flow cytometry, following labeling with 2 μM Syto-61 (Thermo Fisher Scientific)[48],[49]. Viability represents the parasitemia normalized to untreated and “kill” controls that were treated with 2 μM dihydroartemisinin (DHA; Sigma-Aldrich) for 48–72 h. For drug pulse assays, tightly synchronized Cam3.II-rev[50] parasites (1–1.5% parasitemia, 0.2% final hematocrit) were added to the plates and incubated for 6 h. Drugs were removed and the parasitemia assessed in the trophozoite stage of the next cycle.

Question: With `Nc1ncnc2cc(-c3cccc(S(N)(=O)=O)c3)sc12` [OSM-S-106] as the compound, how does the “MS peak area (Asn-OSM-S-106 adduct)” value (HsAsnRS; 1 μM HsAsnRS, 10 μM OSM-S-106, 1 h, 37 °C, individual experiments) read?
Answer: The value was 3564405 and 3396334 and 2555457 and 1397007.

Question: What about the “Asn-OSM-S-106 signal intensity with HsAsnRS, lower than with PfAsnRS” value (HsAsnRS; 10 μM OSM-S-106, ATP, Asn, E. coli tRNA) of the same compound?
Answer: Its value is 18 fold.

Question: And the “growth after 72 h exposure, normalised to no drug” value (“growth … normalised to no drug” for short) (P. falciparum Dd2 parent; Dd2 parent, 3.90625 nM)?
Answer: Its value is 105.433 and 105.733 and 104.567 and 104.167 and 104.633.

Question: And the “growth … normalised to no drug” value (P. falciparum Dd2 parent; Dd2 parent, 7.8125 nM)?
Answer: Its value is 105.2 and 103.8 and 105.633 and 102.933 and 104.1.

Question: And the “growth … normalised to no drug” value (P. falciparum Dd2 parent; Dd2 parent, 31.25 nM)?
Answer: Its value is 88.9667 and 98.9 and 97.0667 and 93.5333 and 97.5667.

Question: And the “growth … normalised to no drug” value (P. falciparum Dd2 parent; Dd2 parent, 62.5 nM)?
Answer: The value was 45.3 and 68.4 and 68.8333 and 58.4667 and 65.5.

Question: And the “growth … normalised to no drug” value (P. falciparum Dd2 parent; Dd2 parent, 125 nM)?
Answer: Its value is 7.633 and 16.6667 and 15.5333 and 13.8333 and 17.5667.

Question: What about the “growth … normalised to no drug” value (P. falciparum Dd2 parent; Dd2 parent, 250 nM) of the same compound?
Answer: The value was 0.2 and 1.267 and 0.5667 and -1.767 and 2.067.

Question: What about the “growth … normalised to no drug” value (P. falciparum Dd2 parent; Dd2 parent, 500 nM) of the same compound?
Answer: Its value is -1.167 and 0 and -0.8 and -3.167 and 0.4.

Question: What about the “growth … normalised to no drug” value (P. falciparum Dd2 parent; Dd2 parent, 1000 nM) of the same compound?
Answer: Its value is -1.867 and -0.3333 and -1.3 and -3.5 and -0.4667.

Question: And the “growth … normalised to no drug” value (P. falciparum Dd2 parent; Dd2 parent, 2000 nM)?
Answer: The value was -0.8333 and -0.3667 and -0.8667 and -2.833 and 0.5.

Question: What about the pIC50 (P. falciparum Dd2 parent; Dd2 parent, individual experiments) of the same compound?
Answer: The pIC50 was 7.12 and 7.15 and 7.13.

Question: What about the pIC50 (P. falciparum Dd2 parent; Plasmodium falciparum, DD2, Dd2 parent, individual experiments) of the same compound?
Answer: The pIC50 was 7.24.

Question: And the pIC50 (P. falciparum Dd2 parent; Plasmodium falciparum, DD2, Dd2 parent, mean ± S.D., five experiments)?
Answer: Its pIC50 is 7.15.

Question: What about the Viability ([1]; 78.1 nM, 6 h pulse, individual experiments, 0 nM = 100) of the same compound?
Answer: Its Viability is 93.5356 and 88.7263.

Question: What about the Viability ([1]; 156.3 nM, 6 h pulse, individual experiments, 0 nM = 100) of the same compound?
Answer: The Viability was 81.4036 and 83.8337.

Question: And the Viability ([1]; 312.5 nM, 6 h pulse, individual experiments, 0 nM = 100)?
Answer: The Viability was 81.9846 and 75.9519.

Question: What about the Viability ([1]; 625 nM, 6 h pulse, individual experiments, 0 nM = 100) of the same compound?
Answer: Its Viability is 76.0359 and 75.5937.

Question: And the Viability ([1]; 1250 nM, 6 h pulse, individual experiments, 0 nM = 100)?
Answer: The Viability was 77.505 and 78.8039.

Question: What about the Viability ([1]; 2500 nM, 6 h pulse, individual experiments, 0 nM = 100) of the same compound?
Answer: Its Viability is 63.2365 and 57.9681.

Question: What about the Viability ([1]; 5000 nM, 6 h pulse, individual experiments, 0 nM = 100) of the same compound?
Answer: The Viability was 58.8326 and 46.673 and 10.7308.

Question: What about the Viability ([1]; 10000 nM, 6 h pulse, individual experiments, 0 nM = 100) of the same compound?
Answer: Its Viability is 6.448 and 2.352 and 1.857.

Question: What about the Viability ([1]; 20000 nM, 6 h pulse, individual experiments, 0 nM = 100) of the same compound?
Answer: The Viability was 0 and 0.3604 and 0.5288.

Question: What about the Viability ([1]; 40000 nM, 6 h pulse, individual experiments, 0 nM = 100) of the same compound?
Answer: Its Viability is 1.032 and 0 (2×).

Question: And the viability at 0.0781 µM ([1]; Plasmodium falciparum, 6 h, 78.1 nM, 6 h pulse, individual experiments, 0 nM = 100)?
Answer: The viability at 0.0781 µM was 77.5%.

Question: What about the viability at 0.1563 µM ([1]; Plasmodium falciparum, 6 h, 156.3 nM, 6 h pulse, individual experiments, 0 nM = 100) of the same compound?
Answer: Its viability at 0.1563 µM is 80.2%.

Question: And the viability at 0.3125 µM ([1]; Plasmodium falciparum, 6 h, 312.5 nM, 6 h pulse, individual experiments, 0 nM = 100)?
Answer: The viability at 0.3125 µM was 81.3%.

Question: And the viability at 0.625 µM ([1]; Plasmodium falciparum, 6 h, 625 nM, 6 h pulse, individual experiments, 0 nM = 100)?
Answer: Its viability at 0.625 µM is 79.9%.

Question: And the viability at 1.25 µM ([1]; Plasmodium falciparum, 6 h, 1250 nM, 6 h pulse, individual experiments, 0 nM = 100)?
Answer: Its viability at 1.25 µM is 79.8%.

Question: And the viability at […] ([1]; Plasmodium falciparum, 6 h, 2500 nM, 6 h pulse, individual experiments, 0 nM = 100)?
Answer: The viability at […] was 77.1%.

Question: What about the pIC50 ([1]; Plasmodium falciparum, 6 h, read-out: IC50 (Viability)) of the same compound?
Answer: The pIC50 was 5.33.
